Laboratory results published in article PMC5133935, “Hydrostatin-TL1, an Anti-Inflammatory Active Peptide from the Venom Gland of Hydrophis cyanocinctus in the South China Sea” (International Journal of Molecular Sciences, 2016).
Entries after “also recorded” stand apart in the source; their conditions may differ. No end group written: not given here.

Experiments:
TNF-α/TNFR1 [1] = assay: Competitive ELISA, inhibition of TNF-α binding to TNFR1; parameters: species or system human; settings: hrTNF-α 20 ng/mL, 1 h, 37 °C, n = 3
Text: We investigated whether H-TL1 has an inhibitory effect on the binding of TNF-α to TNFRs by using ELISA. In this assay, a fixed amount of TNF-α was mixed with different concentrations of H-TL1 and applied to the TNFR-coated ELISA plates. […] SPR analysis was used to further confirm the inhibitory effects of H-TL1 on the binding of TNF-α to TNFR1. As expected, TNF-α was strongly bound with the chip-immobilized TNFR1.
(§1) The T7Select1-2b display vector, T7 select primers, blocking reagent, and elution buffer were purchased from Novagen (Merck, Kenilworth, NJ, USA). […] DSS (36–50 kDa) was bought from MP Biomedicals (Solon, OH, USA). MTT, actinomycin D, and LPS were purchased from Sigma-Aldrich (St. Louis, MO, USA).
ELISA plates were coated with sTNFR1 (100 ng/well in 100 μL of 100 mM sodium carbonate, pH 9.6) for 20 h at 4 °C, followed by blocking with phosphate buffered saline (PBS) containing 0.2% Tween-20 (PBST) and 1% BSA for 1 h at 37 °C. Different concentrations of H-TL1 (0–1 μM) were mixed with hrTNF-α (20 ng/mL) in PBS containing 1% BSA, and 100 μL/well was placed in the ELISA plates and incubated for 1 h at 37 °C. After washing with PBST, an HRP-labeled monoclonal antibody against TNF-α was added, followed by incubation at 37 °C for 1 h. The plates were then washed, incubated with o-phenylenediamine, and the absorbance was subsequently measured at 450 nm.

TNF-α/TNFR1 [2] = assay: SPR analysis, TNF-α binding to chip-immobilized TNFR1; parameters: species or system human; settings: H-TL1 0.5 and 1 μM; hrTNF-α 100 nM; sTNFR1 on CM5 chip, BIAcore T200; 360 s association, 200 s dissociation
Description: as §1
sTNFR1 (100 μg/mL) was covalently immobilized onto a CM5 sensor chip by the BIAcore T200 system (Biacore, GE Healthcare) following manufacturer’s instructions. To determine whether H-TL1 inhibits the binding of TNF-α to TNFR1, hrTNF-α was diluted in running buffer at 100 nM with or without different concentrations of H-TL1 (0.1, 0.5, and 1 μM) and subsequently passed over the sTNFR1-immobilized chip for 360 s, followed by dissociation for 200 s. The response unit indicates binding ability.

[3] = test system: LPS-induced lung tissue damage, C57BL/6 mice; assay: Lung histopathology in LPS-induced acute shock; assay type: in vivo, mouse; settings: 12 h after LPS; H&E 200×; n = 8
Description: (§2) The LPS-induced acute shock model was established in male C57BL/6 mice (6–8 weeks old) that were randomly allocated to five groups. LPS was administered (15 mg/kg body weight) to induce acute shock. The LPS- or normal saline-treated mice were injected with 100 μL of normal saline with or without LPS intraperitoneally, while the H-TL1 and LPS-treated mice were each administered H-TL1 at three doses of 20, 40, and 80 μg/kg 1, 3, and 5 h after the LPS injection (Figure 5A). The mice were observed every 4 h to evaluate mortality.
To assess lung damage, lung tissues were excised, inflated with 4% neutral formalin, and H&E stained 12 h following LPS injection. The lung parenchyma was examined by light microscopy and graded based on the degree of congestion, edema, inflammation, and hemorrhage. Each characteristic was scored on a scale of 0 to 3 (0, absent; 1, light; 2, moderate; and 3, strong).

[4] = test system: TNF-α expression in lung tissue of LPS-treated mice; assay: Immunohistochemistry, TNF-α in lung tissue; assay type: in vivo, mouse; settings: IHC 400×, n = 8, *** p < 0.001 vs. LPS group
Description: as §2
An additional set of paraffin sections was used for immunohistochemical analysis of TNF-α expression. Sections (5-μm thick) were mounted on slides, cleaned, hydrated, blocked with endogenous peroxidase (Dako, S2001), washed with PBS, and then treated with citrate buffer ([…], pH 6.0) for target antigen retrieval. The sections were treated with a buffered blocking solution (3% BSA in PBS for 15 min), incubated for 1 h at room temperature with a primary polyclonal antibody specific to mouse TNF-α, washed with PBS, and incubated with a secondary HRP-labeled antibody (Abcam) (1:500 in PBS, v/v) at room temperature for 1 h. Then, the sections were washed again with Tris-HCl 0.05 M, pH 7.6, and subsequently incubated with 3,3′-diaminobenzidine (DAB) solution in the dark at room temperature for 10 min. […]

mammalian cells = assay: Cytotoxicity toward mammalian cells (general statement); assay type: cell-based; settings: conclusion statement

Substance: ATSKPSLKC-OH [H-TL1]
- inhibition of the binding of TNF-α with TNFR1 (TNF-α/TNFR1 [1]; H-TL1 1 μM, plate coated with sTNFR1 100 ng/well, PBS + 1% BSA, absorbance 450 nm): ~60%
- inhibition of TNF-α/TNFR1 binding, concentration dependence (TNF-α/TNFR1 [1]; H-TL1 0.1–1000 nM): obviously inhibits the binding of TNF-α with TNFR1; also recorded: inhibited the binding of TNF-α with TNFR1 in a concentration-dependent manner
- attenuation of SPR response of TNF-α to TNFR1 (TNF-α/TNFR1 [2]): inhibits the association of TNF-α with sensor chip-immobilized TNFR1; also recorded: the elicited response was markedly attenuated
- lung parenchymal damage and inflammatory cell infiltration [3]: markedly reduced lung parenchymal damage and inflammatory cell infiltration
- TNF-α expression in lung tissue [4]: attenuated this effect
- cytotoxicity toward mammalian cells (mammalian cells): little cytotoxicity toward mammalian cells
